Drawing on PubChem BioAssay (NCI), this text covers TGI and GI50 for 9 molecules.

Test systems include NCI-H522 lung; SK-MEL-5 melanoma; OVCAR-4 ovarian; HS 578T breast; MDA-MB-231 breast; NCI-H460 lung; SNB-75 CNS; A498 renal; NCI/ADR-RES ovarian; MOLT-4 leukemia.
Experiment in all cases: NCI anticancer screen, dose series, 48 h

Where “and” joins values, the source holds several entries; their conditions need not be identical. Equal entries are not always repeated.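 Step 1: Grow cells in 96-well plates. Step 2: Expose to compound for 48 hours at 5 concentrations. Step 3: Interpolate endpoints linearly; if unreached, use highest concentration. Here, GI50 denotes the concentration required for 50% inhibition of growth. TGI marks complete inhibition of growth.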

For `N#CC1(Nc2ccc(-c3ccc(NC4(C#N)CCCC4)cc3)cc2)CCCC1`, the TGI in the assay on NCI-H522 lung, with SK-MEL-5 melanoma, in the assay with OVCAR-4 ovarian, in the assay with HS 578T breast, with MDA-MB-231 breast and in the assay with NCI-H460 lung was more than 100 µM throughout. Besides, the TGI with SNB-75 CNS, in the assay with A498 renal, with NCI/ADR-RES ovarian and with MOLT-4 leukemia was more than 100 µM in each case.

Regarding `CSc1ccc2c(c1)N(CCC1CCCCN1C)c1ccccc1S2` (stereo unspecified), the GI50 in the assay on NCI-H522 lung was 6.29 µM; with SK-MEL-5 melanoma, 1.86 µM and 1.64 µM; with OVCAR-4 ovarian it was 7.99 µM and 5.22 µM; in the assay on HS 578T breast, 6.89 µM and 3.01 µM; with MDA-MB-231 breast, 2.08 µM and 2.4 µM; in the assay with NCI-H460 lung, 4.52 µM and 2.03 µM. Further, the GI50 was 5.64 µM and 3.49 µM in the assay with SNB-75 CNS; 4.99 µM and 13.2 µM with A498 renal; 10.4 µM and 4.76 µM in the assay with NCI/ADR-RES ovarian; 3.61 µM and 3.13 µM in the assay with MOLT-4 leukemia. For the same molecule, the TGI with NCI-H522 lung is 21.8 µM; in the assay with SK-MEL-5 melanoma it was 3.89 µM and 3.02 µM; in the assay on OVCAR-4 ovarian, 20.3 µM and 16.9 µM; with HS 578T breast it was 28.1 µM and 13.2 µM; with MDA-MB-231 breast it was 5.99 µM and 6.11 µM; in the assay with NCI-H460 lung, 17.9 µM and 4.28 µM. For the same molecule, the TGI was 22.1 µM and 12.3 µM in the assay with SNB-75 CNS; 22.2 µM and 28.7 µM in the assay with A498 renal; 24.1 µM and 18.5 µM in the assay with NCI/ADR-RES ovarian; 13.6 µM and 10 µM in the assay on MOLT-4 leukemia.

On to `Cc1[nH]c(C(=O)Nc2ccccc2OC2CCNCC2)c(Cl)c1Cl`, for which the GI50 with NCI-H522 lung is 0.866 µM; in the assay with SK-MEL-5 melanoma, 0.88 µM; with OVCAR-4 ovarian it was 0.901 µM; with HS 578T breast, 0.898 µM; in the assay with MDA-MB-231 breast it was 0.895 µM; with NCI-H460 lung, 0.984 µM. Further, the GI50 is 0.56 µM with SNB-75 CNS, 2.71 µM with A498 renal, 1.27 µM in the assay with NCI/ADR-RES ovarian and 1.31 µM in the assay on MOLT-4 leukemia. Also, the TGI was 1.74 µM in the assay on NCI-H522 lung; 1.59 µM in the assay with SK-MEL-5 melanoma; 1.69 µM with OVCAR-4 ovarian; 1.9 µM in the assay on HS 578T breast; 1.76 µM in the assay on MDA-MB-231 breast; 1.93 µM in the assay on NCI-H460 lung. Moreover, the TGI is 1.19 µM in the assay with SNB-75 CNS, 9.47 µM in the assay on A498 renal, 3.57 µM in the assay with NCI/ADR-RES ovarian and 3.73 µM in the assay with MOLT-4 leukemia.

As to `C=C1CCC2C3(C)COC(c4c(OC)cccc4OC)OC3CCC2(C)C1C/C=C1/C(=O)OCC1O` (stereo unspecified), the GI50 in the assay on NCI-H522 lung is 2.02 µM; in the assay on SK-MEL-5 melanoma, 2.83 µM; in the assay on OVCAR-4 ovarian it was 2.42 µM; in the assay with HS 578T breast, 2.71 µM; with MDA-MB-231 breast, 7.57 µM; with NCI-H460 lung, 4.71 µM. For the same molecule, the GI50 in the assay on SNB-75 CNS is 2.55 µM; with A498 renal, 15 µM; in the assay on NCI/ADR-RES ovarian it was 2.65 µM; with MOLT-4 leukemia it was 3.22 µM. Also, the TGI in the assay with NCI-H522 lung was 5.01 µM; with SK-MEL-5 melanoma, 8.57 µM; with OVCAR-4 ovarian, 6.73 µM; with HS 578T breast it was 10.9 µM; in the assay with MDA-MB-231 breast it was 26.4 µM; in the assay with NCI-H460 lung it was 19.5 µM. Moreover, the TGI in the assay with SNB-75 CNS amounted to 14.5 µM; with A498 renal, 29.6 µM; in the assay on NCI/ADR-RES ovarian, 7.03 µM; with MOLT-4 leukemia, 13.3 µM.

For the molecule `NCCCCCCCCCCCn1c2c(c3ccccc3c1=O)C(=O)c1ccccc1-2`, the GI50 is 3.39 µM in the assay on NCI-H522 lung; 10.3 µM in the assay with SK-MEL-5 melanoma; 2.86 µM with OVCAR-4 ovarian; 22.4 µM in the assay on HS 578T breast; 3.75 µM in the assay on MDA-MB-231 breast; 4.26 µM in the assay on NCI-H460 lung. Moreover, the GI50 in the assay with SNB-75 CNS is 2.95 µM; in the assay on A498 renal it was 12.4 µM; in the assay on NCI/ADR-RES ovarian, 3.2 µM; with MOLT-4 leukemia, 1.97 µM. Also, the TGI was determined as 10.4 µM with NCI-H522 lung; 29.5 µM in the assay on SK-MEL-5 melanoma; 8.63 µM in the assay on OVCAR-4 ovarian; 52.6 µM in the assay on HS 578T breast; 15.2 µM in the assay on MDA-MB-231 breast; 29.7 µM in the assay with NCI-H460 lung. In addition, the TGI came to 7.68 µM with SNB-75 CNS, 36.3 µM in the assay on A498 renal, 17.6 µM with NCI/ADR-RES ovarian and 3.93 µM in the assay with MOLT-4 leukemia.

On to `COC1=C(Br)C(O)C2(C=C1Br)CC(C(=O)NCCCCNC(=O)C1=NOC3(C=C(Br)C(OC)=C(Br)C3O)C1)=NO2` (stereo unspecified), for which the TGI was 29.8 µM in the assay on NCI-H522 lung; 36.6 µM in the assay with SK-MEL-5 melanoma; more than 100 µM in the assay on OVCAR-4 ovarian; 46.9 µM with HS 578T breast; 66.6 µM in the assay on MDA-MB-231 breast; more than 100 µM in the assay with NCI-H460 lung. Moreover, the TGI was 61.2 µM with SNB-75 CNS, more than 100 µM in the assay on A498 renal and more than 100 µM in the assay on NCI/ADR-RES ovarian.

In the case of `COc1ccc(-c2nc(Nc3ccc(-c4nc5ccccc5[nH]4)cc3)nc(N3CCOCC3)n2)cc1`, the GI50 with NCI-H522 lung was 2.36 µM; in the assay with SK-MEL-5 melanoma, 1.79 µM; in the assay with OVCAR-4 ovarian, 3.13 µM; in the assay on HS 578T breast, 1.76 µM; with MDA-MB-231 breast, 1.63 µM; in the assay on NCI-H460 lung it was 2.48 µM. Besides, the GI50 in the assay on SNB-75 CNS is 1.8 µM; in the assay with A498 renal, 1.52 µM; in the assay on NCI/ADR-RES ovarian, 3.18 µM; with MOLT-4 leukemia, 2.15 µM. Moreover, the TGI in the assay with NCI-H522 lung worked out at 5.85 µM; in the assay with SK-MEL-5 melanoma, 3.36 µM; with OVCAR-4 ovarian, 13 µM; with HS 578T breast, 6.96 µM; in the assay with MDA-MB-231 breast, 4.76 µM; in the assay on NCI-H460 lung, 6.51 µM. Moreover, the TGI is 10.5 µM in the assay on SNB-75 CNS, 3.57 µM in the assay with A498 renal, 26.7 µM with NCI/ADR-RES ovarian and 6.13 µM in the assay on MOLT-4 leukemia.

With `COc1ccc2c(c1)C1OCCNC1CC2` (stereo unspecified), the TGI with NCI-H522 lung, in the assay with SK-MEL-5 melanoma, in the assay with HS 578T breast, in the assay with MDA-MB-231 breast, with SNB-75 CNS and with A498 renal was more than 100 µM each time. In addition, the TGI with NCI/ADR-RES ovarian and in the assay on MOLT-4 leukemia was more than 100 µM in each case.

Consider `C[C@]12CC[C@H]3[C@@H](CCC4=CC(=O)CC[C@@]43C)[C@@H]1CC[C@@H]2C(=O)COS(=O)(=O)c1ccc(Br)cc1`, for which the TGI is 2.97 µM in the assay on NCI-H522 lung; 47.9 µM in the assay with SK-MEL-5 melanoma; more than 51.2 µM with OVCAR-4 ovarian; 73.6 µM in the assay with HS 578T breast; 17.7 µM in the assay on MDA-MB-231 breast; 22.2 µM with NCI-H460 lung. The TGI was 41.8 µM with SNB-75 CNS, 37.2 µM in the assay with A498 renal and more than 100 µM in the assay on NCI/ADR-RES ovarian.
